Experimental data taken from US4996230A, “Leukotriene antagonists” (Eli Lilly and Company, priority 1990, dated 1991).

Target: T1, leukotriene B4 specific receptor on the membrane of human neutrophils (Homo sapiens, UniProt Q15722)
T1 construct: a specific receptor on the membrane of human neutrophils; endogenous in cells; host or cells: human peripheral blood neutrophils (buffy coats of two blood donors; intact cells, at least 90% neutrophils)
Assay: Inhibition of Binding of ^3H-LTB4 to Peripheral Human Neutrophils (radio-ligand binding assay)
Settings: 0.1-0.2 nM ^3H-LTB4, 10 minutes at 4° C., read-out: LTB4 Binding Inhibition (percent inhibition); for inhibition at 1 µM: Drug Concentration 10^-6 M; for inhibition at 0.1 µM: Drug Concentration 10^-7 M; for inhibition at 10 µM: Drug Concentration 10^-5 M
Method: Inhibition of Binding of ^3 H-LTB4 to Peripheral Human Neutrophils
The effectiveness of compounds to inhibit the binding of leukotriene B4 to a specific receptor on the membrane of human neutrophils was measured by using an adaptation of a radio-ligand binding assay developed by Goldman and Goetzl, J. Immunol., 129, 1600 (1982). Other investigators have developed similar assays (see, e.g., Kreisle, et al., J. Exp. Med., 157, 628 (1983) and Lin, et al., Prostaglandins, 28, 837 (1984)).
Cells used in the assay were isolated by standard techniques of centrifugation on Ficoll-Hypaque, dextran 70 sedimentation and hypotonic lysis. The following procedure was used. Freshly-prepared buffy coat layers from two individuals were obtained from a local blood donor center. The cells were mixed and diluted to 484 ml with phosphate buffered saline containing heparin (10 units/ml) and heat-inactivated calf serum (5%). This was divided into 20 ml aliquots and the aliquots layered on top of Ficoll-Paque (12 ml). The material was then centrifuged at 500 g for 40 minutes at room temperature. The resulting upper layer of platelets and mononuclear cells was discarded. The lower layer containing erythrocytes and neutrophils was retained. Buffer was added (1 ml per 4 ml of lower layer) and the suspension mixed. For each milliliter of this mixture, 0.33 ml of 6% Macrodex was added. After stirring, the cells were allowed to sediment for 1 hour at 37° C. The resulting erythrocyte pellet was discarded and the neutrophil enriched supernatant fluid centrifuged at 500 g for 10 minutes at 4° C. Erythrocytes still present in this cell pellet were lysed by incubating the cells with 5-8 ml ice-cold distilled water for 30-45 seconds. Subsequently, the volume was made up to 50 ml by addition of ice-cold buffer and the cells resuspended. The suspension was then centrifuged at 300 g for 10 minutes at 4° C. The cells were finally resuspended at a cell density of 2×10^7 cells/ml in the assay buffer. This buffer consisted of Hanks' balanced salt solution and 0.1% ovalbumin (pH 7.3).
The amount of bound ^3 H-LTB4 was then measured and compared with the amount bound in the absence of test compound. The assay was carried out in microcentrifuge tubes by adding first 10 μl test compound dissolved in DMSO, followed by adding 20 μl ^3 H-LTB4 diluted in assay buffer, and finally adding 500 μl of the cell suspension. At the end of the 10 minutes incubation, 300 μl of a mixture of dibutyl and dinonyl phthalate (7:2) were added and the tubes centrifuged for 2 minutes in a microcentrifuge. The radioactivity bound to the cell pellet was measured by scintillation spectroscopy. Appropriate corrections for nonspecific bonding of ^3 H-LTB4 were made.

T1 sequence (Q15722 whole entry): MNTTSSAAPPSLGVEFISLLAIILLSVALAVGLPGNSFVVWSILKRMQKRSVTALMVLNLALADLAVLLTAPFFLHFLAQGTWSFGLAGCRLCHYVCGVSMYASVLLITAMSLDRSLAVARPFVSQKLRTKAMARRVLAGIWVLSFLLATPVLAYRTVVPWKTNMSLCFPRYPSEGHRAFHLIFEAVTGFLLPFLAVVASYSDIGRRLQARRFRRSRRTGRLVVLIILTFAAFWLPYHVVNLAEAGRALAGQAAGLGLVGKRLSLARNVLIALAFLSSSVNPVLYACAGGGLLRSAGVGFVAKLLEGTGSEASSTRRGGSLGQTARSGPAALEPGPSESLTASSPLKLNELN

Compound	inhibition at 1 µM	inhibition at 0.1 µM	inhibition at 10 µM
CCCCCCCCCCOc1cc2c(cc1CCC(=O)O)C(=O)c1cc(C(=O)O)ccc1-2 [Example 8, 7-Carboxy-3-decyloxy-9-oxo-9H-fluorene-2-propanoic acid]	19%	-4%	68%
CCCCCCCCCCOc1ccc2c(=O)c3cccc(C(=O)O)c3oc2c1CCC(=O)O [Example 2, 5-Carboxy-3-(decyloxy)-9-oxo-9H-xanthene-4-propanoic acid]	27%	-7%	
COc1ccc(C=CCCCCOc2ccc3c(=O)c4cc(C(=O)O)ccc4oc3c2CCC(=O)O)cc1 [Example 6, 7-Carboxy-3-{[6-(4-methoxyphenyl)-5-hexenyl]oxy}-9-oxo-9H-xanthene-4-propanoic acid]	99%	91%	102%
COc1ccc(CCCCCCOc2ccc3c(=O)c4cc(C(=O)O)ccc4oc3c2CCC(=O)O)cc1 [Example 7, 7-Carboxy-3-{[6-(4-methoxyphenyl)hexyl]oxy}-9-oxo-9H-xanthene-4-propanoic acid]	103%	85%	106%

Now from value to compound:

inhibition at 1 µM	inhibition at 0.1 µM	inhibition at 10 µM	Compound
25%	2%		CCCCCCCCCCOc1cc2oc3c(C(=O)O)cccc3c(=O)c2cc1CCC(=O)O [Example 1, 5-Carboxy-3-(decyloxy)-9-oxo-9H-xanthene-2-propanoic acid]
86%	52%	102%	CCCCCCCCCCOc1ccc2c(=O)c3cc(C(=O)O)ccc3oc2c1CCC(=O)O [Example 4, 7-Carboxy-3-(decyloxy)-9-oxo-9H-xanthene-4-propanoic acid]
23%	-4%		CCCCCCCCCCOc1cc2oc3ccc(C(=O)O)cc3c(=O)c2cc1CCC(=O)O [Example 3, 7-Carboxy-3-decyloxy-9-oxo-9H-xanthene-2-propanoic acid]
